# Test system: HBV in HepAD38 cells
# Test: HepAD38 cell antiviral assay (reduction of viral product accumulation)
# Assay type: cell-based
# Conditions: Hepatitis B virus, concentration reducing viral product accumulation by 50% relative to no drug controls
# Protocol: Methods: HepAD38 cells are maintained as previously reported (Ladner et al, Antimicrob. Agents Chemother. 1997, […], 1715). Briefly, cells are passaged upon attaining confluency in DMEM/F12 media in the presence of 10% FBS, Penn/Strep, 250 μg/mL G418, and 1 ug/ml tetracycline. Novel compounds are screened by first washing cells three times with PBS to remove tetracycline, and plating in 96 well plates at 35,000 cells/well. Compounds dissolved in DMSO are then diluted 1:200 into wells containing cells. Five days after compound addition, material is harvested for analysis. For an extended 8 day analysis, cells are plated and treated as described above, but media and compound are refreshed on d2 and d5 post initial treatment.
# On harvest day, virion DNA is obtained by lysing with Sidestep Lysis and Stabilization Buffer and then quantified via quantitative real time PCR. Commercially available ELISA kits are used to quantitate the viral proteins HBsAg (Alpco) or HBeAg (US Biological) by following the manufacturer's recommended protocol after diluting samples to match the linear range of their respective assays. Irrespective of readout, compound concentrations that reduce viral product accumulation in the cell lysates or supernatants by 50% relative to no drug controls (EC50) are reported; EC50 ranges are as follows: A<1 μM; B 1-10 μM; C>10 μM.
row,Compound,EC50 [µM]
1,O=S(=O)(c1cc(-c2ncc(-c3ccc(Br)c(F)c3)[nH]2)ccc1Cl)N1C2CC[C@@H]1C[C@H](O)C2 [Example 1],< 1
2,O=S(=O)(c1cc(-c2ncc(-c3ccc(Br)c(F)c3)[nH]2)ccc1Cl)N1C2CC[C@@H]1C[C@@H](O)C2 [Example 2],< 1
3,C[C@H](NC(=O)OC(C)(C)C)C(=O)O[C@@H]1CC2CC[C@H](C1)N2S(=O)(=O)c1cc(-c2ncc(-c3ccc(Br)c(F)c3)[nH]2)ccc1Cl [Example 3],< 1
4,C[C@H](N)C(=O)O[C@@H]1CC2CC[C@H](C1)N2S(=O)(=O)c1cc(-c2ncc(-c3ccc(Br)c(F)c3)[nH]2)ccc1Cl [Example 4],< 1
5,O=S(=O)(c1cc(-c2ncc(-c3ccc(Br)c(F)c3)[nH]2)ccc1Cl)N1CCC(O)C2(CC2)C1 (stereo not drawn) [Example 5],< 1
6,O=C(Nc1cc(F)c(F)c(F)c1)c1ccc(Cl)c(S(=O)(=O)N2C3CC[C@@H]2C[C@H](O)C3)c1 [Example 6],< 1
7,O=C(Nc1cc(F)c(F)c(F)c1)c1ccc(Cl)c(S(=O)(=O)N2C3CC[C@@H]2C[C@@H](O)C3)c1 [Example 7],< 1
8,O=C(Nc1ccc(Br)c(F)c1)c1ccc(Cl)c(S(=O)(=O)N2C3CC[C@@H]2C[C@H](O)C3)c1 [Example 8],1 to 10
9,O=C(Nc1cc(F)c(F)c(F)c1)c1ccc(Cl)c(S(=O)(=O)N2CCC(O)C3(CC3)C2)c1 (stereo not drawn) [Example 9],< 1
10,O=S(=O)(c1cc(-c2ncc(-c3ccc(C4CC4)c(Cl)c3)[nH]2)ccc1Cl)N1C2CC[C@@H]1C[C@H](O)C2 [Example 10],< 1
11,O=S(=O)(c1cc(-c2ncc(-c3ccc(Cl)c(C4CC4)c3)[nH]2)ccc1Cl)N1C2CC[C@@H]1C[C@H](O)C2 [Example 11],< 1
12,O=S(=O)(c1cc(-c2ncc(-c3ccc(C(F)(F)F)c(C4CC4)c3)[nH]2)ccc1Cl)N1C2CC[C@@H]1C[C@H](O)C2 [Example 12],< 1
13,O=S(=O)(c1cc(-c2ncc(-c3ccc(C(F)(F)F)c(Cl)c3)[nH]2)ccc1Cl)N1C2CC[C@@H]1C[C@H](O)C2 [Example 13],< 1
14,O=S(=O)(c1cc(-c2ncc(-c3ccc(Cl)c(C(F)(F)F)c3)[nH]2)ccc1Cl)N1C2CC[C@@H]1C[C@H](O)C2 [Example 14],< 1
15,O=S(=O)(c1cc(-c2ncc(-c3ccc(C4CC4)c(C(F)(F)F)c3)[nH]2)ccc1Cl)N1C2CC[C@@H]1C[C@H](O)C2 [Example 15],1 to 10
16,O=C1CC2CCC(C1)N2S(=O)(=O)c1cc(C(=O)Nc2cc(F)c(F)c(F)c2)ccc1Cl [Example 16],< 1
17,C=C1CC2CCC(C1)N2S(=O)(=O)c1cc(C(=O)Nc2cc(F)c(F)c(F)c2)ccc1Cl [Example 17],< 1
18,O=C(Nc1cc(F)c(F)c(F)c1)c1ccc(Cl)c(S(=O)(=O)N2C3CCC2CC(O)(CO)C3)c1 (stereo not drawn) [Example 18],< 1
19,O=C(Nc1cc(F)c(F)c(F)c1)c1ccc(Cl)c(S(=O)(=O)N2C3CCC2CC(CO)C3)c1 (stereo not drawn) [Example 19],< 1
20,O=C(Nc1cc(F)c(F)c(F)c1)c1ccc(Cl)c(S(=O)(=O)N2CCC3(CC2)COC3)c1 [Example 20],1 to 10
21,O=S(=O)(c1cc(-c2ncc(-c3ccc(Br)c(F)c3)[nH]2)ccc1Cl)N1CCC2(COC2)C1 [Example 21],1 to 10
22,O=S(=O)(c1cc(-c2ncc(-c3ccc(Br)c(F)c3)[nH]2)ccc1Cl)N1CC2(COC2)C1 [Example 22],1 to 10
23,O=S(=O)(c1cc(C(Nc2cc(F)c(F)c(F)c2)C(F)(F)F)ccc1Cl)N1C2CC[C@@H]1CC(O)C2 (stereo partly drawn) [Example 23],> 10
24,O=S(=O)(c1cc(C2(Nc3cc(F)c(F)c(F)c3)COC2)ccc1Cl)N1C2CC[C@@H]1CC(O)C2 (stereo partly drawn) [Example 24],> 10
